According to patent publication US20130224126A1, “Oral Care Product and Methods of Use and Manufacture Thereof” (Colgate-Palmolive Company, priority 2010, published 2013):

Tested on: bacteria/yeast and mold
Test: Antimicrobial Preservation Effectiveness Test (micro robustness), double challenge test
Format: cell-based
Conditions: in the mouthwash formulations, separately or in combination
Protocol: The Antimicrobial Preservation Effectiveness Test is used to determine the antimicrobial preservation effectiveness of water-based product formulations by means of a double challenge test. Products are developed to withstand microbial challenges introduced by normal consumer use. The test is run on an aged sample (13 weeks, 40° C.). The test uses two pools of microorganisms: bacteria/yeast and mold. The product is challenged at a 1% level at day 0 and at day 7. Reduction of the inoculum is monitored over a 28 day period. The following are the acceptance criteria for mouth wash formulas. • Bacteria and yeast must show a 99.9% reduction (3 logs) of the bacterial inoculum as determined by plate count on day 7 following each inoculation. No increase after day 7 of the second inoculation and for the remainder of the test within normal variation of the data. • Mold must show a 90.0% reduction (1 log) of the mold inoculum as determined by the plate count on day 14 following the second inoculation (day 21). No increase from day 14 to day 21 of the second inoculation of the test within normal variation of the data.

Row | SMILES | microbial control
1 | OCc1ccccc1 [Benzyl alcohol, benzyl alcohol] | acceptable
2 | Cn1sccc1=O [MIT, methylisothiazolinone] | acceptable
